What all share (type): ADME
Series [1] concerns Liver microsome. Put plainly: Drug metabolism human liver microsomes treated with 100 uM anastrozole assessed as retention time by mass spectrometry analysis.
In series [2] the test system is Liver microsome. Put plainly: Drug metabolism human liver microsomes treated with 100 uM lamotrigine assessed as retention time by mass spectrometry analysis. (In general: Microsomes from liver hold many membrane-bound enzymes, among them those of drug oxidation.)
Series [3] is described as follows: Drug metabolism in human liver microsomes assessed as UGT1A4 70C>A (AC) mutant-mediated compound glucuronidation at 100 uM by mass spectrometry analysis.
Series [4] can be described thus: Drug metabolism in human liver microsomes assessed as UGT1A4 -219C>T(TT) mutant-mediated compound glucuronidation at 100 uM by mass spectrometry analysis.
The nature of series [5]: Drug metabolism in human liver microsomes assessed as UGT1A4 -217T>G(TG) variant-mediated compound glucuronidation at 100 uM by mass spectrometry analysis.
In series [6] the test system is Liver microsome. Put plainly: Drug metabolism in human liver microsomes assessed as retention time at 100 uM by mass spectrometry analysis.
A short description of series [7]: Drug metabolism in human liver microsomes assessed as UGT1A4 142T>G (TG) mutant-mediated compound glucuronidation at 100 uM by mass spectrometry analysis.
Series [8] is described as follows: Drug metabolism in human liver microsomes assessed as UGT1A4 70C>A (AA) mutant-mediated compound glucuronidation at 100 uM by mass spectrometry analysis.
Series [9] can be described thus: Drug metabolism in human liver microsomes assessed as UGT1A4 -217T>G(TT) variant-mediated compound glucuronidation at 100 uM by mass spectrometry analysis.
Series [10] is described as follows: Drug metabolism in human liver microsomes assessed as UGT1A4 142T>G (TT) mutant-mediated compound glucuronidation at 100 uM by mass spectrometry analysis.
Series [11] concerns Liver microsome. Put plainly: Drug metabolism in human liver microsomes assessed as glucuronide formation per mg protein by mass spectrometry analysis.
Series [12] can be described thus: Drug metabolism in human liver microsomes assessed as UGT1A4 -219C>T(CC) mutant-mediated compound glucuronidation at 100 uM by mass spectrometry analysis.
Series [13] in a line: Drug metabolism in human liver microsomes assessed as UGT1A4 142T>G (GG) mutant-mediated compound glucuronidation at 100 uM by mass spectrometry analysis.
A short description of series [14]: Drug metabolism in human liver microsomes assessed as UGT1A4 -36G>A (AA) variant-mediated compound glucuronidation at 100 uM by mass spectrometry analysis.
Series [15] in a line: Drug metabolism in human liver microsomes assessed as UGT1A4 -219C>T(CT) mutant-mediated compound glucuronidation at 100 uM by mass spectrometry analysis.
The nature of series [16]: Drug metabolism in human liver microsomes assessed as UGT1A4 -163G>A(AA) variant-mediated compound glucuronidation at 100 uM by mass spectrometry analysis.
Series [17] can be described thus: Drug metabolism in human liver microsomes assessed as UGT1A4 -163G>A(GG) variant-mediated compound glucuronidation at 100 uM by mass spectrometry analysis.
The nature of series [18]: Drug metabolism in human liver microsomes assessed as UGT1A4 -36G>A (GG) mutant-mediated compound glucuronidation at 100 uM by mass spectrometry analysis.
A short description of series [19]: Drug metabolism in human liver microsomes assessed as UGT1A4 70C>A (CC) mutant-mediated compound glucuronidation at 100 uM by mass spectrometry analysis.
Series [20] in a line: Drug metabolism in human liver microsomes assessed as UGT1A4 -36G>A (AG) variant-mediated compound glucuronidation at 100 uM by mass spectrometry analysis.
Series [21] is described as follows: Drug metabolism in human liver microsomes assessed as UGT1A4 -217T>G(GG) mutant-mediated compound glucuronidation at 100 uM by mass spectrometry analysis.
Series [22] has as its target T1, UDP-glucuronosyltransferase 1A4 (Homo sapiens, UniProt P22310).
T1 sequence (P22310 whole entry): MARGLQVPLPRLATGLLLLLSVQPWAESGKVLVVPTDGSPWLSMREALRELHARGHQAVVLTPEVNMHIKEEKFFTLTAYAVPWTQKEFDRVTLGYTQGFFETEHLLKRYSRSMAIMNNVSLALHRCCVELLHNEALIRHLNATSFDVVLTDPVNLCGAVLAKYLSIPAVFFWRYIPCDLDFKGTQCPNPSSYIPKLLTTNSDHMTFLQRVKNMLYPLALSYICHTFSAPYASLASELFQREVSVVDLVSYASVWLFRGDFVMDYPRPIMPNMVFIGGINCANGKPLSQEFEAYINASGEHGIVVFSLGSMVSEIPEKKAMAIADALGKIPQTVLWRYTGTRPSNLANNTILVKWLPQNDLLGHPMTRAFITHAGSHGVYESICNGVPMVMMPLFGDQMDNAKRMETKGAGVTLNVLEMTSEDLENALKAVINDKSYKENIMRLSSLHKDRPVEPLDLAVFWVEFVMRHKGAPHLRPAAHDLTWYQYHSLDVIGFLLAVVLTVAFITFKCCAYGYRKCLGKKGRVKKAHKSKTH
Description: Drug metabolism assessed as hecogenin-mediated inhibition of human recombinant UGT1A4-catalyzed anastrozole glucuronidation after 90 mins.

In series [23] the test system is Liver microsome. Description: Drug metabolism in pooled human liver microsomes assessed as IC50 for hecogenin-mediated inhibition of anastrozole glucuronidation after 90 mins. The conditions noted are these: 1.5 h.
Series [24] can be described thus: Drug metabolism in human liver microsomes assessed as UGT1A4 -163G>A(AG) mutant-mediated compound glucuronidation at 100 uM by mass spectrometry analysis.

Take `CC(C)(C#N)c1cc(Cn2c[n+]([C@@H]3O[C@H](C(=O)[O-])[C@@H](O)[C@H](O)[C@H]3O)cn2)cc(C(C)(C)C#N)c1`: the Retention_time in the series with Liver microsome [1] came to 2.86 min.

Turning to `Nc1nc(N)[n+]([C@@H]2O[C@H](C(=O)[O-])[C@@H](O)[C@H](O)[C@H]2O)nc1-c1cccc(Cl)c1Cl`, the Retention_time with Liver microsome [2] was 1.34 min.

`CC(C)(C#N)c1cc(Cn2cncn2)cc(C(C)(C)C#N)c1` [ANASTROZOLE]: the Drug metabolism in [3] came to 0.3 pmol/min/µg; in [4], 1 pmol/min/µg; in series [5], 1.5 pmol/min/µg; in [7], 0.3 pmol/min/µg; in [8], 0.8 pmol/min/µg; in series [9], 0.3 pmol/min/µg. The Drug metabolism in [10] was determined as 0.5 pmol/min/µg; in the series with Liver microsome [11], 0.023 pmol/min; in series [12], 0.4 pmol/min/µg; in [13], 0.3 pmol/min/µg; in series [14] it was 1.3 pmol/min/µg; in series [15], 0.9 pmol/min/µg. The Drug metabolism was 0.8 pmol/min/µg in series [16]; 0.4 pmol/min/µg in [17]; 0.3 pmol/min/µg in series [18]; 0.4 pmol/min/µg in [19]; 1 pmol/min/µg in series [20]; 1.9 pmol/min/µg in series [21]. Moreover, the Drug metabolism in series [24] turned out to be 0.7 pmol/min/µg. In addition, the Retention_time in the series on Liver microsome [6] is given as 3.95 min. In addition, the values for the IC50 (in series [22]; with Liver microsome [23]) were 4.72 µM and 15 µM, respectively.

On to `Nc1nnc(-c2cccc(Cl)c2Cl)c(N)n1` [LAMOTRIGINE], for which the Retention_time in the series with Liver microsome [6] amounted to 1.63 min. Further, in the series with Liver microsome [11], the Drug metabolism entry is “metabolite_detected”.

By IC50 is commonly meant the concentration needed to halve the response being measured.

The record behind these values is ChEMBL document CHEMBL3525947, “Potential role of UGT1A4 promoter SNPs in anastrozole pharmacogenomics” (Drug Metab Dispos, 2013).
